Data from ChEMBL document CHEMBL1201862, “PubChem BioAssay data set” (2004).
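96-well plates; 48 h exposure; 5 concentrations. Endpoints by linear interpolation between flanking doses. Not reached: highest tested concentration assigned. At the GI50, growth is halved.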 The source made the active and inactive calls. No stated cut-off is given here; in the data, active = GI50 up to about 1.1 µM and inactive = higher.

Experiments:
Test in all cases: DTP human tumour cell line panel, 48 h
HOP-92 = tested on: HOP-92
DMS-273 = tested on: DMS-273
CAKI-1 = tested on: CAKI-1
SNB-75 = tested on: SNB-75
Malme-3M = tested on: Malme-3M
NCI-H460 = tested on: NCI-H460
CCRF-CEM = tested on: CCRF-CEM
RPMI-8226 = tested on: RPMI-8226
KM12 = tested on: KM12
UO-31 = tested on: UO-31
SF-268 = tested on: SF-268
M14 = tested on: M14
TK-10 = tested on: TK-10
M19-MEL = tested on: M19-MEL
OVCAR-3 = tested on: OVCAR-3
LOX IMVI = tested on: LOX IMVI
OVCAR-4 = tested on: OVCAR-4
RXF 393 = tested on: RXF 393
NCI-H522 = tested on: NCI-H522
HCC 2998 = tested on: HCC 2998
SF-295 = tested on: SF-295
EKVX = tested on: EKVX
SK-MEL-28 = tested on: SK-MEL-28
U-251 = tested on: U-251
SK-MEL-2 = tested on: SK-MEL-2
HCT-15 = tested on: HCT-15
LXFL 529 = tested on: LXFL 529
SF-539 = tested on: SF-539
ACHN = tested on: ACHN
HL-60 = tested on: HL-60
DLD-1 = tested on: DLD-1
OVCAR-5 = tested on: OVCAR-5
HT-29 = tested on: HT-29
A498 = tested on: A498
COLO 205 = tested on: COLO 205
MOLT-4 = tested on: MOLT-4
A549 = tested on: A549
SNB-78 = tested on: SNB-78
NCI-H23 = tested on: NCI-H23
SR = tested on: SR
UACC-257 = tested on: UACC-257
SW-620 = tested on: SW-620
OVCAR-8 = tested on: OVCAR-8
K562 = tested on: K562
SN12C = tested on: SN12C
HCT-116 = tested on: HCT-116
SK-OV-3 = tested on: SK-OV-3
HOP-62 = tested on: HOP-62
IGROV-1 = tested on: IGROV-1
XF498 = tested on: XF498
KM-20L2 = tested on: KM-20L2
SK-MEL-5 = tested on: SK-MEL-5
UACC-62 = tested on: UACC-62
DMS-114 = tested on: DMS-114
NCI-H226 = tested on: NCI-H226
786-0 = tested on: 786-0
HOP-18 = tested on: HOP-18
SNB-19 = tested on: SNB-19

SMILES: O=C(/C=C/c1c(O)ccc2ccccc12)c1ccc([N+](=O)[O-])cc1
- GI50 (HOP-92): 16.1 µM (inactive)
- GI50 (DMS-273): > 78.7 µM (inactive)
- GI50 (CAKI-1): 37.8 µM (inactive)
- GI50 (SNB-75): > 83 µM (inactive)
- GI50 (Malme-3M): 22.9 µM (inactive)
- GI50 (NCI-H460): 46.9 µM (inactive)
- GI50 (CCRF-CEM): 17.9 µM (inactive)
- GI50 (RPMI-8226): 25.9 µM (inactive)
- GI50 (KM12): 67.1 µM (inactive)
- GI50 (UO-31): > 43 µM (inactive)
- GI50 (SF-268): 41.5 µM (inactive)
- GI50 (M14): 19.8 µM (inactive)
- GI50 (TK-10): > 53.5 µM (inactive)
- GI50 (M19-MEL): 18.5 µM (inactive)
- GI50 (OVCAR-3): 17.3 µM (inactive)
- GI50 (LOX IMVI): 16.7 µM (inactive)
- GI50 (OVCAR-4): 18.5 µM (inactive)
- GI50 (RXF 393): 23.1 µM (inactive)
- GI50 (NCI-H522): 17 µM (inactive)
- GI50 (HCC 2998): 97.9 µM (inactive)
- GI50 (SF-295): > 66.2 µM (inactive)
- GI50 (EKVX): 41.9 µM (inactive)
- GI50 (SK-MEL-28): 30.1 µM (inactive)
- GI50 (U-251): 46.5 µM (inactive)
- GI50 (SK-MEL-2): 33.2 µM (inactive)
- GI50 (HCT-15): 25.2 µM
- GI50 (LXFL 529): 16.6 µM (inactive)
- GI50 (SF-539): 37.8 µM (inactive)
- GI50 (ACHN): 22.1 µM (inactive)
- GI50 (HL-60): 9.77 µM (inactive)
- GI50 (DLD-1): 18.7 µM (inactive)
- GI50 (OVCAR-5): > 100 µM (inactive)
- GI50 (HT-29): 54.1 µM (inactive)
- GI50 (A498): > 100 µM (inactive)
- GI50 (COLO 205): 33.1 µM (inactive)
- GI50 (MOLT-4): 43.6 µM (inactive)
- GI50 (A549): > 95.9 µM (inactive)
- GI50 (SNB-78): 21.6 µM (inactive)
- GI50 (NCI-H23): 23.1 µM (inactive)
- GI50 (SR): 32.7 µM (inactive)
- GI50 (UACC-257): 25.2 µM (inactive)
- GI50 (SW-620): 25.2 µM (inactive)
- GI50 (OVCAR-8): 37.2 µM (inactive)
- GI50 (K562): > 49.4 µM (inactive)
- GI50 (SN12C): 20 µM (inactive)
- GI50 (HCT-116): 19.3 µM (inactive)
- GI50 (SK-OV-3): > 100 µM (inactive)
- GI50 (HOP-62): > 100 µM (inactive)
- GI50 (IGROV-1): > 60.8 µM (inactive)
- GI50 (XF498): 27.5 µM (inactive)
- GI50 (KM-20L2): > 100 µM (inactive)
- GI50 (SK-MEL-5): 19.4 µM (inactive)
- GI50 (UACC-62): 17.4 µM (inactive)
- GI50 (DMS-114): 21.3 µM (inactive)
- GI50 (NCI-H226): > 100 µM (inactive)
- GI50 (786-0): 24.5 µM (inactive)
- GI50 (HOP-18): 15.2 µM (inactive)
- GI50 (SNB-19): > 88.9 µM (inactive)

SMILES: O=C1NC2(CCCCC2)C2CCCCC=C12 (stereo not drawn)
- GI50 (HOP-92): > 100 µM (inactive)
- GI50 (DMS-273): > 100 µM (inactive)
- GI50 (CAKI-1): > 100 µM (inactive)
- GI50 (SNB-75): > 100 µM (inactive)
- GI50 (Malme-3M): > 100 µM (inactive)
- GI50 (NCI-H460): > 100 µM (inactive)
- GI50 (CCRF-CEM): > 100 µM (inactive)
- GI50 (RPMI-8226): > 100 µM (inactive)
- GI50 (KM12): > 100 µM (inactive)
- GI50 (UO-31): > 100 µM (inactive)
- GI50 (SF-268): > 100 µM (inactive)
- GI50 (M14): > 100 µM (inactive)
- GI50 (TK-10): > 100 µM (inactive)
- GI50 (M19-MEL): > 100 µM (inactive)
- GI50 (OVCAR-3): > 100 µM (inactive)
- GI50 (LOX IMVI): > 100 µM (inactive)
- GI50 (OVCAR-4): > 100 µM (inactive)
- GI50 (RXF 393): > 100 µM (inactive)
- GI50 (NCI-H522): > 100 µM (inactive)
- GI50 (SF-295): > 100 µM (inactive)
- GI50 (EKVX): > 100 µM (inactive)
- GI50 (SK-MEL-28): > 100 µM (inactive)
- GI50 (U-251): > 100 µM (inactive)
- GI50 (SK-MEL-2): > 100 µM (inactive)
- GI50 (HCT-15): > 100 µM
- GI50 (LXFL 529): > 100 µM (inactive)
- GI50 (SF-539): > 100 µM (inactive)
- GI50 (ACHN): > 100 µM (inactive)
- GI50 (HL-60): > 100 µM (inactive)
- GI50 (DLD-1): > 100 µM (inactive)
- GI50 (OVCAR-5): > 100 µM (inactive)
- GI50 (HT-29): > 100 µM (inactive)
- GI50 (A498): > 100 µM (inactive)
- GI50 (COLO 205): > 100 µM (inactive)
- GI50 (MOLT-4): > 100 µM (inactive)
- GI50 (A549): > 100 µM (inactive)
- GI50 (SNB-78): > 100 µM (inactive)
- GI50 (NCI-H23): > 100 µM (inactive)
- GI50 (SR): > 100 µM (inactive)
- GI50 (UACC-257): > 100 µM (inactive)
- GI50 (SW-620): > 100 µM (inactive)
- GI50 (OVCAR-8): > 100 µM (inactive)
- GI50 (K562): > 100 µM (inactive)
- GI50 (SN12C): > 100 µM (inactive)
- GI50 (HCT-116): > 100 µM (inactive)
- GI50 (SK-OV-3): > 100 µM (inactive)
- GI50 (HOP-62): > 100 µM (inactive)
- GI50 (IGROV-1): > 100 µM (inactive)
- GI50 (XF498): > 100 µM (inactive)
- GI50 (SK-MEL-5): > 100 µM (inactive)
- GI50 (UACC-62): > 100 µM (inactive)
- GI50 (DMS-114): > 100 µM (inactive)
- GI50 (786-0): > 100 µM (inactive)
- GI50 (HOP-18): > 100 µM (inactive)
- GI50 (SNB-19): > 100 µM (inactive)
